The results in this text go back to a melting point compilation (Tetko et al.; mined from patent text by program, amines drawn as free bases though some values may be those of a salt).

As usually defined, the melting point is the temperature of the solid-liquid transition.

In turn, `COc1cc(C(F)(F)F)cc(Cl)c1-n1nc(C#N)c(SC(C)(F)F)c1N` returned a melting point of 79 °C.

In turn, `CCOP(=O)(OCC)C(Cc1cc(C)c(O)c(OC)c1)c1cccnc1` (stereo not given) displayed a melting point of 85 to 87 °C.

With `COc1ccccc1N(CN1CCOC1=O)C(=O)CCl`, the melting point lay within 109 to 110 °C.

Compound `CC(C)(C)NS(=O)(=O)c1cncc(Br)c1` gave a melting point of 110 °C.

With `OC(c1ccc2c(c1)CCN2)(C(F)F)C(F)(F)F` (stereo not given), the melting point lay in the range of 129 to 132 °C.

`COc1ccc(NC2C3CCC(CC3=O)C2(C)c2ccccc2)cc1` (stereo not given) showed a melting point of 138 to 139 °C.

Compound `COc1ccc(-c2nnc3c4ccccc4c(CCl)nn23)cc1` registered a melting point of 203 to 206 °C.

Turning to `Cc1cnc(C(=O)NCCO[N+](=O)[O-])s1`, the melting point was 110 to 112 °C.

In the case of `BrCCCOc1ccc(Oc2ccccc2)cc1`, the melting point lay in the range of 54 to 55 °C.

Take `Cc1c(F)c(F)cc2c1c(=O)c(C(=O)O)cn2-c1ccc(F)cc1`: the melting point lay in the range of 255 to 257 °C.

Consider `O=C1CCCC(=O)C1C(=O)c1ccc(Cl)cc1Cl`, for which the melting point lay in the range of 138 to 140 °C.

Compound `CCCCCCCNC(=O)N(C)c1cccc(-c2ccc(CCC(=O)O)cc2)c1` yielded a melting point of 101 °C.

In turn, `COC(=O)CCn1c2ccc(O)cc2c2c3c(c(-c4ccccc4Cl)cc21)C(=O)NC3=O` gave a melting point of 218 to 220 °C.

On to `O=C(NOCC(O)CO)c1cc(Br)c(F)c(F)c1Nc1ccccc1F` (stereo not given), for which the melting point was determined as 144 °C.

Take `CC(C)Cc1nn(C)c(=O)c2c(SCCCO)n(Cc3ccccc3)cc12`: the melting point fell in the range of 91 to 92 °C.

Regarding `O=C(NN1CCN(C(=O)Nc2ccccc2)CC1)c1ccc(F)cc1`, the melting point was in the range of 263 to 266 °C.

With `Clc1ccc(Nc2nc(-c3nccc4ccccc34)nc3ccccc23)cc1`, the melting point was in the range of 279 to 280 °C.

Turning to `C=C1N(CCC)C(=O)OC12CCN(Cc1ccccc1)CC2`, the melting point was 70 to 71 °C.

Consider `COc1ccccc1N1CCN(CCc2[nH]c(=O)[nH]c2-c2ccc(F)cc2)CC1`, for which the melting point was 213 to 214 °C.

`O=S(=O)(NCCc1ccccc1)c1cccc(-c2cc(-c3nc(-c4ccc(C(F)(F)F)cc4)cc(C(F)(F)F)n3)ccn2)c1`: the melting point is 201 °C.

`CC1(OCc2ccccc2F)COC(C(C)(C)C)OC1` (stereo not given): the melting point lay within 50 to 52 °C.

Consider `Cc1c(CNCC(C)(C)C)[nH]c2c(C)c(NC(=O)c3ccc(OC[C@@H]4CCCO4)cc3)ccc12`, for which the melting point was in the range of 178 to 179 °C.

With `O=C(O)c1sc(Cl)nc1-c1ccccc1`, the melting point is 170 to 171 °C.

As to `CCOC(=O)c1ccc2c(c1)ncn2-c1cc(Cl)ccc1O`, the melting point is above 360 °C.

`Cc1c(Br)c2c(c(C)c1NC(=O)OC(C)(C)C)C(N1CCCC1)C(C)(C)O2` (stereo not given): the melting point lay within 128 to 130 °C.

As for `COc1ccc(-c2cc(=O)[nH]nc2C)cc1`, the melting point fell in the range of 255 to 256 °C.

`C=C1CCN(c2cn(-c3cccnc3)nc2Cl)C1=O` came in with a melting point of 117 to 118 °C.

With `CCCCc1ncc(/C=C(\Cc2cccs2)C(=O)O)n1Cc1ccc(OC)c(C)c1`, the melting point was in the range of 140 to 141 °C.

Compound `S=[PH2]CCC(c1ccccc1)(c1ccccc1)c1ccccc1` gave a melting point of 88 °C.

As to `CN(C)C(=O)Nc1ccc(OCCc2ccccc2)c(N)c1`, the melting point lay in the range of 125 to 126 °C.

`CN1CC(COC2c3ccccc3CCn3cc(I)nc32)C1` (stereo not given) returned a melting point of 100 °C.

With `CC(C)(C)C(=O)c1c[nH]c2ncc(-c3cccc(NC4=NCCN4)c3)nc12`, the melting point lay within 228 to 230 °C.

Take `CCn1ncc2c(NCC3CCCC(O)C3)c3cc([N+](=O)[O-])ccc3nc21` (stereo not given): the melting point was in the range of 236 to 238 °C.

In turn, `C1=C(c2cccs2)CCN(CCCSc2ccncc2)C1` gave a melting point of 86 to 87 °C.

In the case of `COC(=O)c1cc(N)c(F)c(Cl)n1`, the melting point fell in the range of 180 to 183 °C.

For `CCc1ccc(-c2nc3ccccc3[nH]2)cc1`, the melting point stood at 258 °C.

As to `COC(=O)c1nc2cccc(Cl)c2c(O)c1C(=O)OC`, the melting point lay within 174 to 176 °C.

`O=C(NC(=O)c1ccccc1Cl)Nc1ccc(C=C(Br)Br)cc1`: the melting point came out at 190 °C.

The compound `COc1ccc(C2=CCOCC2)cc1[N+](=O)[O-]` displayed a melting point of 117 to 120 °C.

`COc1cccc(C2=NN=C(C)Cc3cc(OC)c(OC)cc32)c1`: the melting point fell in the range of 133 to 135 °C.

As to `CCCCc1ncc(CNC(Cc2cccs2)C(=O)O)n1Cc1ccc(C(=O)O)cc1` (stereo not given), the melting point was in the range of 151 to 152 °C.

`CC(=O)c1ccc2c(c1)Cc1ccccc1O2`: the melting point is 103 to 104 °C.

For `Clc1ccc2[nH]cc(C3=CCN(CCCOc4cccc5[nH]ccc45)CC3)c2c1`, the melting point lay in the range of 198 to 202 °C.

Consider `Cn1nnnc1C(CO)=C(c1ccc(F)cc1)c1ccc(F)cc1`, for which the melting point was 141 to 142 °C.

`C=CCn1c(C)nc2c1CC(C(=O)OCC)C1=C2NC2(CC1=O)Cc1ccccc1C2` (stereo not given) returned a melting point of 164 to 165 °C.

With `OCCSc1nc(-c2ccccc2)c(-c2ccccc2)s1`, the melting point fell in the range of 77 to 79 °C.

`O=c1n(-c2cc(OCCCl)c(Cl)cc2Cl)nc2n1CCCC2` came in with a melting point of 148 to 150 °C.

With `CCN(CC)c1ccc(N(Cc2ccc(N)c(OC)c2)C(N)=O)c(C)c1`, the melting point lay within 110 to 115 °C.

`O=C(CCN1CCCC1)Nc1ccc2[nH]c3ccc(NC(=O)CCN4CCCC4)cc3c(=O)c2c1` came in with a melting point above 320 °C.

As to `NC(=O)c1cc2c(Oc3cccc(C(F)(F)F)c3)cncc2s1`, the melting point fell in the range of 175 to 176 °C.

In the case of `CCOC(=O)c1cc2c(C(F)(F)F)ccc3c2n1CCN3C`, the melting point was 91 to 92 °C.

In the case of `COc1ccc2c(c1)C13CCN(C)C(C2)C1OC(C)(C)OC3` (stereo not given), the melting point was 132 to 133 °C.

`CCC1(CC)OC(=O)C(Cn2cncn2)(c2ccc(Cl)cc2)O1` (stereo not given) showed a melting point of 105 to 108 °C.

The compound `O=C(NC1C2CC3CC(C2)CC1C3)C1CCCCN1Cc1ccccn1` (stereo not given) showed a melting point of 126 to 127 °C.

`CCOC(=O)CON(C(=S)Nc1cc(Cl)ccc1C)C(C)C` returned a melting point of 83 to 85 °C.

Take `Cc1ccc(N2CSC(=NCc3ccc(C(F)(F)F)cc3)N(CC(F)(F)F)C2=O)cc1`: the melting point fell in the range of 97 to 98.5 °C.

Regarding `CC1(C(=O)c2c[nH]c3ncc(Br)nc23)CCCC1`, the melting point was 207 to 208 °C.

In turn, `COc1ccc(I)c(CC(=O)O)c1` came in with a melting point of 134 °C.

Take `Cn1nnc2ccc(CNNc3ccc(Cl)cc3)cc21`: the melting point was found to be 96 °C.

Compound `COC(=O)CCCc1cccc(NC(=O)[C@@H](CSC(C)=O)Cc2ccccc2)c1` showed a melting point of 87 to 88.5 °C.

Turning to `CCOC(=O)Cc1cc(O)ccc1CCc1cc2cc(C#N)ccc2o1`, the melting point lay in the range of 84 to 86 °C.

With `Cc1cc(-c2cc(C(F)(F)F)n3cnc(-c4cccnc4)c3n2)ccc1C(F)(F)F`, the melting point worked out at 173 °C.

Compound `CS(=O)(=O)Nc1cccc(Nc2nc(NCc3cccnc3)c3nc[nH]c3n2)c1` came in with a melting point of 144 to 147 °C.

For `O=C(Nc1ccc2ccc(N3CCCC3)nc2n1)c1ccccc1`, the melting point came to 130 °C.

Turning to `O=C(C(Cl)Cl)N1CCOC1C(Cl)Cl` (stereo not given), the melting point was determined as 80 °C.

In turn, `O=C(O)CCCCOc1ccccc1OCc1ccccc1` came in with a melting point of 74 to 75 °C.

Take `CC1CCCN1CCCOc1ccc2c(c1)CCC1CC(=O)NN=C21` (stereo not given): the melting point was in the range of 193 to 195 °C.

Regarding `O=S(=O)(C(=CNc1nccs1)S(=O)(=O)c1ccccc1)c1ccccc1`, the melting point lay in the range of 189 to 191 °C.

In the case of `COC(=O)C(=NO)c1cc(Cl)nc(NC=O)n1`, the melting point fell in the range of 110 to 112 °C.

`Nc1c(Cl)cc(C(O)CNCCCCCC(=O)OCCc2cccc3ccccc23)cc1Cl` (stereo not given) gave a melting point of 60 to 61 °C.

With `O=C1CSC(C(=O)O)Cc2cc3c(cc21)OCCO3` (stereo not given), the melting point was in the range of 208 to 209 °C.

For `CCOC(=O)C=Cc1ccc(OCc2csc(-c3ccccc3)n2)c(OC)c1`, the melting point was in the range of 92 to 93 °C.

For `O=c1ncc(F)cn1CCO`, the melting point was 134 to 136 °C.

As for `CCN(Cc1cc(Br)ccc1OCc1ccccc1)c1ccc(-c2nnn[nH]2)cc1`, the melting point fell in the range of 206 to 208 °C.

Turning to `O=C(C(=O)N1CCCCC1)N1CCCCC1`, the melting point lay in the range of 88 to 90 °C.

The compound `Cc1[nH]c(=O)n(-c2cc(C(=O)OC(C)C)c(Cl)cc2F)c(=O)c1SC#N` had a melting point of 159 to 161 °C.

As to `Cc1nccn1-c1nccc2[nH]c(=O)ccc12`, the melting point is above 310 °C.

For the compound `CN(C)C(=O)c1cccc(C(C(N)=O)c2cccc(Br)c2)c1` (stereo not given), the melting point lay within 119 to 120 °C.

`COc1ccc(C(C#N)Cc2cc(OC)c(OC)c(OC)c2)cc1` (stereo not given): the melting point lay within 102 to 103 °C.

For the compound `CCCCCCCCCCCC(OO)OOC(CCCCCCCCCCC)OO` (stereo not given), the melting point fell in the range of 56 to 58 °C.

`CN1CC2CC2(C(=O)O)C1` (stereo not given) displayed a melting point of 193 to 195 °C.

`c1cc(-c2noc(C3CC3)n2)cnn1` had a melting point of 115 to 117 °C.

`COCCN(CCOC)CCc1ccc(Nc2ncc3c(n2)-c2ccccc2C(c2cccc(Br)c2)C3)cc1` (stereo not given) returned a melting point of 58 to 60 °C.

As to `CC(C)c1ccc(OCC(=O)Cl)cc1`, the melting point is 104 to 105 °C.

In turn, `COc1cc(O)c(C(=O)C=Cc2ccccc2)c(OC)c1` came in with a melting point of 85.5 °C.

As for `CCOC(=O)CCc1cc(C(=O)CCC(=O)O)ccc1OC`, the melting point lay in the range of 128 to 129 °C.

In the case of `CC(O)C1COCc2nc3c(N)nc4ccccc4c3n21` (stereo not given), the melting point lay within 208 to 209 °C.

The compound `NC1CCc2ccccc2N(CC(=O)O)C1=O` (stereo not given) returned a melting point of 147 to 150 °C.

Regarding `NNC(=O)c1ncn2c1[C@@H]1CCCN1C(=O)c1sccc1-2`, the melting point is above 260 °C.

Turning to `CC(C)=NOc1ccc([N+](=O)[O-])cc1`, the melting point lay in the range of 104 to 106 °C.

`CCOc1cc(C)c(Cl)cc1S(N)(=O)=O`: the melting point was 153 to 155 °C.

For the compound `O=CNc1ccccc1C(=O)Nc1nnn[nH]1`, the melting point lay within 247 to 248 °C.

Regarding `COc1cc(C(O)CN)cc(OC)c1OC` (stereo not given), the melting point worked out at 141 °C.

On to `CCn1c(=O)c2[nH]c(/C=C/c3ccc(C)cc3)nc2n(CC)c1=O`, for which the melting point was above 280 °C.

`Cc1c(O)ccc2c(=O)c(-c3cccc(C(F)(F)F)c3)coc12` displayed a melting point of 283 to 284 °C.
